{
  "source": "patent US20050147608A1",
  "about": "“Novel regulatory mechanisms of NF-kappaB” (Beth Israel Deaconess Medical Center, Inc., priority 2003, published 2005)",
  "key": {"p65 [1]": {"tested_on": "p65", "experiment": "p65 protein stability in Pin1−/− MEFs", "format": "cell-based, mouse", "excerpt": "The ability of Pin1 to regulate the protein stability of p65 led to another surprising finding in this study, which is the ubiquitin-mediated proteolysis of p65. Although the ubiquitin-mediated proteolysis of IkBα has been well characterized (Baeuerle and Baltimore, 1996; Ghosh et al., 1998), a similar regulation has not been previously described for NF-kB itself. […] Furthermore, even in Pin1+/+ cells, the point mutation in p65 (T254A) that disrupts its binding to Pin1 converts p65 from a stable into an extremely unstable protein due to rapid nuclear export and subsequent protein degradation."}, "p65 [2]": {"tested_on": "p65", "experiment": "In vivo ubiquitination assay of p65 in HeLa cells (His-ubiquitin, Ni-agarose pulldown)", "format": "cell-based", "details": "His-tagged ubiquitin, MG-132 for 16 hr", "description": "(F) Ubiquitination of p65 in vivo. HeLa cells expressing p65, UbcH5a and His-tagged ubiquitin or vector controls were treated with MG-132 or DMSO control for 16 hr, followed by lysis using sonication in a buffer containing 6M urea. Ubiquitin-conjugated proteins were captured with […] beads and subjected to immunoblot with anti-p65 antibody.\nTo examine which region of the p65 molecule can be ubiquitinated, different GST-p65 fragments (FIG. 3D) were incubated with S100 HeLa cells extracts, ubiquitin, E1 and UbcH5a or UbcH6, and then purified GST-p65 fragments using GST beads, followed by immunoblot with anti-ubiquitin antibodies. Although neither the fragment A nor C was ubiquitinated, fragment B, which contains the Pin1 binding Thr254-pro motif (FIG. 3E), was poly-ubiquitinated with UbcH5a, but not with UbcH6 (FIG. 6D). To examine whether other E2 enzymes could catalyze the ubiquitination of p65 in vitro, we incubated recombinant GST-p65 fragment B with in vitro ubiquitination assay using different E2 enzymes. Out of the 8 E2 enzymes examined, only UbcH5a effectively conjugated multiple ubiquitin molecules into p65 (FIG. 6E). […] However, no ubiquitinated p65 was detected in the absence of His ubiquitin and/or MG-132 (FIG. 6F), indicating the specificity of the in vivo ubiquitination assay."}, "p65-T254A [3]": {"tested_on": "p65-T254A", "experiment": "Co-immunoprecipitation of Pin1 with Xpress-tagged p65-T254A in 293T cells after proteasome inhibition", "format": "cell-based", "details": "20 μM MG-132 for 12 hr", "description": "(G) Failure of Pin1 to bind p65-T254A. 293T cells were co-transfected with Pin1 and Xpress-tagged p65 or its T254A mutant. After cells were incubated with 20 μM MG-132 for 12 hr, they were subjected to immunoprecipitation analysis with anti-Xpress antibody, followed by immunoblot with anti-p65 or anti-Pin1 antibodies.\n(§1) Cells were arrested at the G1/S phase or the mitotic phase, as describe previously. Total cells, 293T or HeLa, were lysed with GST-pulldown buffer (50 mM Hepes pH7.4, 150 mM NaCl, 10% glycerol, 1% Triton-X100, 1.5 mM MgC12, 1 mM EGTA, 100 mM NaF, 1 mM Na3VO4, 1 mM DTT and 0.5 μg/ml Leupeptin, 1.0 μg/ml Pepstatin, 0.2 mM PMSF) and incubated were incubated with 20 μl of agarose beads containing GST-Pin1 or GST at 4° C. for 2 hr, as described previously (Ryo et al., 2001). The precipitated proteins were washed three times with wash buffer containing and subjected to SDS-PAGE. For immunoprecipitation, cells were harvested at 24 hr after transfection and lysed with NP-40 lysis buffer (10 mM Tris HCl pH7.5, 100 mM NaCl, 0.5% NP-40, 1 mM Na3VO4, 0.5 μg/ml Leupeptin, 1.0 μg/ml Pepstatin, 0.2 mM PMSF). Cell lysates were incubated for 1 hr with Protein A/G Sepahrose/mouse IgG complexes.\nThree truncation mutants of p65 were generated and subjected them to the GST-pulldown assay. […]"}, "p65-T254A [4]": {"tested_on": "p65-T254A", "experiment": "Protein degradation assay (cycloheximide chase, immunoblot) of p65-T254A in 293T cells", "format": "cell-based", "set-up": "dose or concentration left out as unconfirmed", "description": "(A, B) Stabilization of p65-T254A by a proteosome inhibitor. 293T cells expressing Xpress-p65-T254A or Xpress-LacZ were treated with cycloheximide and MG-132 ([…]) or the solvent DMSO for the times indicated, followed by immunoblot with anti-Xpress antibody (A), followed by semi-quantification with Imagequant (B). (C) Ubiquitination of p65 in vitro. In vitro translated 35 S-labeled p65 was incubated with ubiquitin in the presence or absence of E1 and UbcH5a for times indicated, followed by separation on SDS-PAGE and autoradiography. (D) Ubiquitination of the GST-p65 fragment B, but A or C. GST-p65 truncation mutants (FIG. 3D) were incubated with HeLa S-100 extracts, ubiquitin, E1 and either UbcH5a or UbcH6 for 3 hrs, followed by GST pulldown and immunoblotting with anti-ubiquitin antibody. (E) Ubiquitination of GST-p65 fragment B via UbcH5a. GST-p65-truncated mutant B was subjected to ubiquitination assay in vitro using different E2 enzymes.\n293T cells were transfected with Xpress-tagged p65. A plasmid encoding Xpress-LacZ was used as a transfection control. […] Cells were harvested at each time points, and total lysates were analyzed by immunoblotting with anti-Xpress antibody (Invitrogene). The blots were scanned and semi-quantified by using the software NIH image 1.6.2, as described (Ryo et al., 2001). […]"}, "Pin1 and p65": {"tested_on": "Pin1 and p65", "experiment": "GST-Pin1 pulldown of Xpress-tagged p65 from 293T cells", "format": "binding", "details": "293T cells treated with TNF-α for 3 hrs vs PBS", "description": "(D) Enhancement of Pin1 and p65 binding by TNF-α. 293T cells expressing Xpress-tagged p65 were treated with PBS or TNF-αfor 3 hrs, followed by GST-pull down experiment and immunoblot with anti-Xpress antibody.\nas §1\nPin1 binds and isomerizes specific pSer/Thr-Pro motifs in certain phosphoproteins. To explore the molecular mechanism of NF-kB activation by Pin1, it was investigated as to whether any components of NF-kB or IkBα are Pin1 substrates. […]"}, "NF-κB": {"tested_on": "NF-κB", "experiment": "NF-κB-Luc gene reporter assay in breast cancer cell lines after Pin1 inhibition", "format": "cell-based", "details": "BT20 (ER-negative) and MCF-7 (ER-positive) cells, both cell lines; 48 hrs after transfection", "excerpt": "(C) Inhibition of NF-κB activation and NF-κB DNA binding activity in breast cancer cell lines by downregulation of Pin 1. Two breast cancer cell lines were transfected with Pin1-specific or non-specific siRNA together with a NF-kB-Luc or TK-Luc reporter construct for 48 hrs, followed by assaying luciferase activity and Pin1 protein levels (insets) (C) or assaying NF-κB DNA binding activity by EMSA using NF-κB or OCT1 consensus oligonucleotides (D).\nApproximately 60% confluent cells were transfected in triplicate in 12 well dishes with Effectene (Qiagen). Gene reporter assays were performed with Dual-Luciferase reporter assay system (Promega) at 24-36 hr after transfection as described previously (Wulf et al., 2001). pRL-TK (Promega) was used as an internal control for transfection efficiency. All results are expressed as X±SD of independent triplicate cultures. For gene reporter assays in breast cancer cell line, cells were transfected with pSuppressor Neo vector encoding Pin1 specific siRNA (5′-[…]-3′) or non-specific siRNA (5′-[…]-3′) together with Ig-kB luciferase construct and pRL-TK. After 48 hr, cells were lysed and subjected to gene reporter assay.\nGiven that the NF-κB activation is regulated by a series of phosphorylation events, it was investigated whether Pin1 is involved in this regulation. […]"}},
  "note": "Where a SMILES comes first, the peptide text is derived from it. The star is where a group is joined. Cbz = O=C(OCc1ccccc1)*",
  "data": [
    {"molecule": "CC(C)C[C@@H](C=O)NC(=O)[C@H](CC(C)C)NC(=O)[C@H](CC(C)C)NC(=O)OCc1ccccc1", "note": "[MG-132] (Cbz-Leu-Leu-Leu-aldehyde)", "values": [
      {"measurement": "stability of p65", "setting": "p65 [1]", "result": "could be stabilized"},
      {"measurement": "poly-ubiquitination of p65", "setting": "p65 [2]", "result": "p65 was substantially poly-ubiquitinated"},
      {"measurement": "stability of p65-T254A", "setting": "p65-T254A [3]", "result": "p65-T254A was stable"},
      {"measurement": "half-life of p65-T254A protein", "setting": "p65-T254A [4]", "result": "strikingly prolonged the half-life of p65-T254A protein"}
    ]},
    {"molecule": "TNF-α", "values": [
      {"measurement": "increase of Pin1-p65 binding", "setting": "Pin1 and p65", "result": "~3", "unit": "fold"}
    ]},
    {"molecule": "siRNA: pSuppressor Neo vector encoding Pin1 specific siRNA (5′-GCCACATCACTAACGCCAGC-3′) (expressed from pSuppressor Neo vector)", "values": [
      {"measurement": "transcriptional activity of NF-κB-Luc", "setting": "NF-κB", "result": "significantly suppressed the transcriptional activity of NF-κB-Luc"}
    ]}
  ]
}
